Source: PubChem BioAssay AID1033 (Sanford-Burnham Center for Chemical Genomics, 2008)
Activity calls are given as the source filed them. How the calls were made is not given here.

Molecular target: Chaperone protein DnaK (Escherichia coli (strain K12)) (UniProt P0A6Y8)
Test: E. coli DnaK SBD ligand binding – biophysical, NMR, chaperone (AID 1033)
Conditions: Purified DnaK SBD

Sequence of Chaperone protein DnaK (Escherichia coli (strain K12)) (P0A6Y8 whole entry, looked up): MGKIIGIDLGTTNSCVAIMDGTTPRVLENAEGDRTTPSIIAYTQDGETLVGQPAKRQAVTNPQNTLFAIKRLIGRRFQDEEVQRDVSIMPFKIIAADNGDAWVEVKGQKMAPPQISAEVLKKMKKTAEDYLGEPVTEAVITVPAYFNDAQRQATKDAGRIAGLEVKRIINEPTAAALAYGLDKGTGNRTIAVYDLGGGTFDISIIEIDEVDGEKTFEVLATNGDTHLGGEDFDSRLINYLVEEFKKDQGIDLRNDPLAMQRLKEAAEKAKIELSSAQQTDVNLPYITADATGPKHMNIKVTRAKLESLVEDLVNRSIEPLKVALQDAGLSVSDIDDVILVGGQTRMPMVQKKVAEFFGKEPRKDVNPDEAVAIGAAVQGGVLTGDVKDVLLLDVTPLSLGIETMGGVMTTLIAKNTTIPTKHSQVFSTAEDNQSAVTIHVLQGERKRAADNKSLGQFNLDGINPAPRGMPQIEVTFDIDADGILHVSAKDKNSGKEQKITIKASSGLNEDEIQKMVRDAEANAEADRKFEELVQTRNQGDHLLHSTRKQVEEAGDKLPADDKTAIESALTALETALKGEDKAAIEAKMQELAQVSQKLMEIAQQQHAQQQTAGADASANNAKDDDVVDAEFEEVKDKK

| SMILES | Kd |
| --- | --- |
| Cn1nnc2cc(C(=O)O)ccc21 | > 4 mM (inactive) |
| Cc1ccc(NC(=O)c2ccccc2)s1 | > 4 mM (inactive) |
| O=C(Nn1cnnc1)c1csc2c1CCCC2 | > 4 mM (inactive) |
| CC1=C(C(N)=O)C(c2ccco2)C(C(N)=O)=C(C)N1 | > 4 mM (inactive) |
| CCOC(=O)Nc1ccc2c(C)cc(=O)oc2c1 | > 4 mM (inactive) |
| O=S(=O)(N1CCOCC1)n1nnc2ccccc21 | > 4 mM (inactive) |
| Cn1nnc2cc(C(=O)NC3CCCCC3)ccc21 | > 4 mM (inactive) |
| O=C(Nc1ccccc1)NC1CCS(=O)(=O)C1 (configuration not stated) | > 4 mM (inactive) |
| CNS(=O)(=O)c1cccs1 | > 4 mM (inactive) |
| O=C(Nc1nnc(-c2cccnc2)o1)c1ccccc1F | > 4 mM (inactive) |
| O=C(O)/C=C(\CC(=O)O)C(=O)O | > 4 mM (inactive) |
| COC(=O)CCSCC(=O)Nc1nccs1 | > 4 mM (inactive) |
| O=C(O)c1ccc(-c2cnco2)cc1 | > 4 mM (inactive) |
| NC(=O)C(=O)Nc1nc(-c2ccccc2)cs1 | > 4 mM (inactive) |
| COC(=O)c1cccc(C(F)(F)F)c1 | > 4 mM (inactive) |
| Cc1noc(C)c1C(=O)Nc1ccccc1-c1ccccc1 | > 4 mM (inactive) |
| Nn1cnn2c(SCc3ccccc3)nnc12 | > 4 mM (inactive) |
| Cc1ccc(NC(=O)C2CCCNC2=O)nc1 (configuration not stated) | > 4 mM (inactive) |
| CC(=O)OCC(=O)[C@@]1(O)CCC2C3CC[C@@H]4C[C@H](OC(C)=O)CC[C@]4(C)C3C(=O)C[C@@]21C (some centres not stated) | > 4 mM (inactive) |
| CCOc1ccc(Cl)cc1S(=O)(=O)N1CCCC1 | > 4 mM (inactive) |
| CCOC(=O)C1CCN(Cc2ccccc2)CC1 | > 4 mM (inactive) |
| c1ccc2c(c1)nnn2C1CCNCC1 | > 4 mM (inactive) |
| Cc1noc(C)c1C(=O)Nc1cccnc1 | > 4 mM (inactive) |
| O=C(O)c1cnn2ccccc12 | > 4 mM (inactive) |
| COc1ccc2c(c1OC)C(=O)O[C@H]2[C@H]1c2cc3c(cc2CCN1C)OCO3 | > 4 mM (inactive) |

| SMILES | Kd |
| --- | --- |
| Cc1cc(C)c2ccc[n+]([O-])c2c1O | > 4 mM (inactive) |
| O=C1CSC(=Nc2ccccc2)N1 | > 4 mM (inactive) |
| O=C(Nc1ncc2ccccc2n1)c1cccs1 | < 0.2 mM |
| NC1=NC(=O)/C(=C/c2ccccc2[N+](=O)[O-])S1 | > 4 mM (inactive) |
| Cc1cc(S(=O)(=O)N2CCOCC2)ccc1F | > 4 mM (inactive) |
| O=S(=O)(Cc1ccc(Cl)cc1)N1CCCC1 | > 4 mM (inactive) |
| NC(=O)c1ccc(N2C(=O)C=CC2=O)cc1Cl | > 4 mM (inactive) |
| CC1(C)C=Cc2c(cc3occ(-c4ccc5c(c4)OCO5)c(=O)c3c2O)O1 | > 4 mM (inactive) |
| OCc1sccc1-n1cccc1 | > 4 mM (inactive) |
| COC(=O)C1=CCCN(C)C1 | > 4 mM (inactive) |
| O=c1cccc2n1CC1CC2CN2CCCC[C@@H]12 (some centres not stated) | > 4 mM (inactive) |
| COc1cc2occc2c2oc(=O)ccc12 | > 4 mM (inactive) |
| C=C1C(=O)O[C@@H]2C[C@@]3(C)CCC[C@H](C)C3=C[C@H]12 | > 4 mM (inactive) |
| COc1ccc(/C=C2/NC(=S)NC2=O)cc1 | > 4 mM (inactive) |
| CCN(CC)S(=O)(=O)c1ccc(F)cc1 | > 4 mM (inactive) |
| CN1C(=O)c2ccc(N3CCCC3)cc2C1=O | > 4 mM (inactive) |
| O=C1NC(=S)NC(=O)C1=Cc1ccco1 | > 4 mM (inactive) |
| CC(=O)Nc1ccc(S(=O)(=O)Nc2cc(C)on2)cc1 | > 4 mM (inactive) |
| CC(C)NC(=O)c1cc(=O)n(C)c(=O)n1C | > 4 mM (inactive) |
| O=C1C[C@@H](c2ccc(O)cc2)Oc2cc(O)cc(O)c21 | > 4 mM (inactive) |
| OCc1cccc2c1OCCO2 | > 4 mM (inactive) |
| Cn1ccc(C(=O)NC(=S)NN2CCOCC2)n1 | > 4 mM (inactive) |
| CN(C)CCCN1CNC(=S)NC1 | > 4 mM (inactive) |
| Cc1cc(=O)n(C(N)=S)[nH]1 | > 4 mM (inactive) |
| COc1cccc(/C=C/C(=O)O)c1C(C)C | > 4 mM (inactive) |

| SMILES | Kd |
| --- | --- |
| OCc1ccc(-n2cncn2)cc1 | > 4 mM (inactive) |
| NC(=O)Cn1nc(-c2ccco2)ccc1=O | > 4 mM (inactive) |
| NC(=O)c1ccc(C(N)=O)cc1 | > 4 mM (inactive) |
| O=c1ccnc(Nc2ccccc2O)[nH]1 | > 4 mM (inactive) |
| COc1c2ccccc2nc2occc12 | > 4 mM (inactive) |
| Cn1c(O)c(C2=NC(=S)NC2=O)c2ccccc21 | > 4 mM (inactive) |
| COc1ccc(-c2cc(=O)c3c(OC(C)=O)cc(OC(C)=O)cc3o2)cc1 | > 4 mM (inactive) |
| c1cncc(Nc2nc(-c3cccnc3)cs2)c1 | > 4 mM (inactive) |
| CCCCC(Nc1n[nH]c(=O)[nH]c1=O)C(=O)O (configuration not stated) | > 4 mM (inactive) |
| OC[C@H]1O[C@@H](Oc2ccc(O)cc2)[C@H](O)[C@@H](O)[C@@H]1O | > 4 mM (inactive) |
| C#CCCCCCCCCCCCc1ccco1 | > 4 mM (inactive) |
| O=C1CC(C(=O)O)c2ccccc21 (configuration not stated) | > 4 mM (inactive) |
| C=C1CCC2C(CC2(C)C)C(=C)CC/C1=N/O (configuration not stated) | > 4 mM (inactive) |
| CC(=O)Nn1c(=O)[nH]c2ccccc2c1=O | > 4 mM (inactive) |
| Cc1nnsc1C(=O)N(C)c1ccccc1 | > 4 mM (inactive) |
| NCc1oc(-c2ccccc2)cc1C(=O)O | > 4 mM (inactive) |
| Cc1ccn(S(=O)(=O)c2ccc(F)cc2)n1 | > 4 mM (inactive) |
| C=C1C2CC[C@@]3(C)[C@H](c4ccoc4)OC(=O)C[C@]13O[C@H]1CC(=O)C(C)(C)C(CC(=O)OC)C21C (some centres not stated) | > 4 mM (inactive) |
| Nc1ccc(Cc2ccncc2)cc1 | > 4 mM (inactive) |
| Cc1cc(C)c(-c2cc(C(F)(F)F)no2)c(=O)[nH]1 | > 4 mM (inactive) |
| CNC(=O)c1cc(C)c(-c2ccccc2)s1 | > 4 mM (inactive) |
| NC(=O)C1CCN(C2CC(=O)NC2=O)CC1 (configuration not stated) | > 4 mM (inactive) |
| Cc1c(F)cccc1NS(=O)(=O)c1ccccc1C#N | > 4 mM (inactive) |
| O=C1NC(=O)/C(=C\c2ccco2)S1 | > 4 mM (inactive) |
| COC(=O)c1cc(-c2c[nH]c3ccccc23)n[nH]1 | > 4 mM (inactive) |

| SMILES | Kd |
| --- | --- |
| CSc1nnc2c(n1)OC=Nc1ccccc1-2 | > 4 mM (inactive) |
| NC(=O)c1ccc(NC(=O)c2cccnc2)cc1 | > 4 mM (inactive) |
| O=[N+]([O-])c1c[n+]([O-])n(-c2ccccc2)n1 | > 4 mM (inactive) |
| Nc1cc(N)nc(SCc2cccnc2)n1 | > 4 mM (inactive) |
| O=C(c1ccccc1)N1CCNCC1 | > 4 mM (inactive) |
| O=C(Oc1ccc(-c2nnco2)cc1)N1CCOCC1 | > 4 mM (inactive) |
| CC(O)C(=O)N/N=C/c1cccs1 (configuration not stated) | > 4 mM (inactive) |
| O=C(Nc1ccc(Cl)cc1)N1CCCC1 | > 4 mM (inactive) |
| C(=N\c1nccs1)/c1cccnc1 | > 4 mM (inactive) |
| NC1=NC(=O)C(CC(=O)Nc2ccccc2F)S1 (configuration not stated) | > 4 mM (inactive) |
| O=C1Nc2ccccc2C12OCCO2 | > 4 mM (inactive) |
| C=C(C)[C@@H]1CC[C@]2(CO)CC[C@]3(C)[C@H](CCC4[C@@]5(C)CC[C@H](O)C(C)(C)C5CC[C@]43C)C12 (some centres not stated) | > 4 mM (inactive) |
| Nc1nc2ccc(N3CCOCC3)cc2s1 | > 4 mM (inactive) |
| Nc1ccc2[nH]ncc2c1 | > 4 mM (inactive) |
| Nc1c(/C=C2\C=Nc3ccccc32)c(=O)nc2scnn12 | > 4 mM (inactive) |
| S=c1[nH]c2cccnc2[nH]1 | > 4 mM (inactive) |
| O=C(O)CSc1nc2ccccc2c(=O)[nH]1 | > 4 mM (inactive) |
| CC(=O)CNc1cc(CNC(C)=O)c(C)cc1C | > 4 mM (inactive) |
| O=C(O)/C=C/C(=O)Nc1ccccc1C(F)(F)F | > 4 mM (inactive) |
| NCc1cccc(-n2cccc2)c1 | > 4 mM (inactive) |
| CC(C)(C)C(=O)Nc1nnc(SCC(N)=O)s1 | > 4 mM (inactive) |
| C[C@@H]1CC[C@]2(C(=O)O)CC[C@]3(C)C(=CCC4[C@@]5(C)CC[C@H](O)C(C)(C)C5CC[C@]43C)C2[C@H]1C (some centres not stated) | > 4 mM (inactive) |
| O=C(CCc1ccc(O)cc1)c1c(O)cc(O)cc1O[C@@H]1O[C@H](CO)[C@@H](O)[C@H](O)[C@H]1O | > 4 mM (inactive) |
| c1coc(CNc2ncnc3nc[nH]c23)c1 | > 4 mM (inactive) |
| CCN=Cc1c(O)n(-c2ccccc2C)c(=O)[nH]c1=O | > 4 mM (inactive) |

| SMILES | Kd |
| --- | --- |
| O=C1NC(=S)N/C1=C\c1ccccc1 | > 4 mM (inactive) |
| NC(=O)c1cccnc1Oc1ccccc1 | > 4 mM (inactive) |
| Nc1cccc(NC(=O)c2cccs2)c1 | > 4 mM (inactive) |
| COc1cc([C@@H]2c3cc4c(cc3[C@H](OC(C)=O)[C@H]3COC(=O)[C@@H]23)OCO4)cc(OC)c1OC | > 4 mM (inactive) |
| Cn1c(SCC(N)=O)nnc1-c1cccnc1 | > 4 mM (inactive) |
| O=C(O)Cn1nnnc1-c1ccc(F)cc1 | > 4 mM (inactive) |
| NC(=O)Nc1cccc(C(F)(F)F)c1 | > 4 mM (inactive) |
| CCn1c(C)c(C(C)=O)c(N2CCOCC2)nc1=S | > 4 mM (inactive) |
| Oc1cc(O)c2c(c1)O[C@H](c1ccc(O)c(O)c1)[C@@H](O)C2 | > 4 mM (inactive) |
| CSc1ccccc1NC(=O)c1c(C)noc1C | > 4 mM (inactive) |
| Cc1cccc(N2C(=O)CCC2=O)n1 | > 4 mM (inactive) |
| Cc1cccn2cc(CNc3ccccc3)nc12 | > 4 mM (inactive) |
| Oc1ccc([C@H]2Oc3cc(O)cc(O)c3C[C@H]2O)cc1 | > 4 mM (inactive) |
| Cc1ccc(C(=O)CS(C)(=O)=O)cc1 | > 4 mM (inactive) |
| Cc1ccc(C(=O)Nn2cnnc2)s1 | > 4 mM (inactive) |
| O=c1nc(C(F)(F)F)nc2ccccn12 | > 4 mM (inactive) |
| O=C1CC(c2c[nH]c3ccccc23)C(=O)N1 (configuration not stated) | > 4 mM (inactive) |
| O=C1CCCC(=O)N1c1ccc(O)cc1 | > 4 mM (inactive) |
| NC1=NC(=O)/C(=C/c2cccs2)S1 | > 4 mM (inactive) |
| C=CCNC(=O)c1ccc(Cl)cc1Cl | > 4 mM (inactive) |
| OCc1ccc(-c2cccs2)s1 | > 4 mM (inactive) |
| O=C1C=CC(=O)c2c(O)cccc21 | > 4 mM (inactive) |
